# Test results published in patent US20260053811A1, “METHODS OF TREATING HYPERTENSION IN OBESE SUBJECTS” (Mineralys Therapeutics, Inc., priority 2022, published 2026).
# Read-outs that look alike come from different tables or passages of the source.
# Key:
# Assay type in all cases: in vivo, human
# [1] = Pharmacokinetics (plasma Cmax, AUC, Tmax, t1/2, trough concentrations); settings: for concentration at 56 day / AUC(0-t) / Cmax / Tmax: human, plasma, oral; for concentration at 56 day / AUC(0-t) / Cmax: 100 mg; for concentration at 56 day: Day 56; for Tmax: read-out: Tmax, Median
# Text: Pharmacokinetic endpoints of this study are PK parameters, including, of area under the plasma concentration versus time curve (AUC), maximum plasma concentration (Cmax), time to maximum concentration (Tmax), and half-life (t1/2) will be summarized descriptively for Randomization (baseline) and Study Weeks 1, 4, and 8
# (§1) PK/PD Analysis Set includes all subjects in the SAF who have sufficient data available for the analysis of pharmacokinetic and pharmacodynamic measurements. In the analyses based on PKPD, subjects will be analyzed according to the actual treatment received.
# [2] = system: 11-deoxycorticosterone; assay: Serum 11-deoxycorticosterone (pharmacodynamic response); settings: for 11-Deoxycorticosterone, Mean (SD) Observed / 11-Deoxycorticosterone, Mean (SD) Percent Change from Baseline: Part 1; for 11-Deoxycorticosterone, Mean Observed / 11-Deoxycorticosterone, Mean Percent Change from Baseline: Part 2
# Text: as §1
# [3] = system: 11-deoxycortisol; assay: Plasma 11-deoxycortisol (pharmacodynamic response); settings: for 11-Deoxycortisol, Mean (SD) Observed / 11-Deoxycortisol, Mean (SD) Percent Change from Baseline: Part 1; for 11-Deoxycortisol, Mean Observed / 11-Deoxycortisol, Mean Percent Change from Baseline: Part 2
# Text: as §1
# [4] = system: hypertensive subjects; assay: Clinical laboratory evaluations (chemistry incl. serum creatinine, hematology, coagulation, urinalysis)
# Text: Safety endpoints of this study are: • (a) Incidence and severity of all spontaneously reported adverse events (AEs) • (b) Changes in vital signs (standing SBP, standing DBP, body temperature, heart rate, and respiratory rate) • (c) Changes in electrocardiogram parameters (including cardiac intervals: PR, QRS, QT, and corrected QT interval using Fridericia's formula) • (d) Changes in clinical laboratory assessments (hematology, chemistry, coagulation, and urinalysis) • (e) Change in office-measured SBP from Study Week 8 (end-of-treatment period to end of follow up (i.e. end of Study Week 12 for Part 1 and end of Study 10 for Part 2).
# [5] = steady state Day 28, 12.5 mg BID
# [6] = Part 1 active treatment arms, Week 4
smiles,measurement,setting,value
CC(=O)N[C@H]1CC[C@H](NC(=O)CN2CCN(c3nncc(-c4ccc(C)cc4)n3)CC2)CC1 [Compound A HBr],concentration at 56 day,"[1]; 100 mg QD Part 2, read-out: Trough Plasma Concentration, Mean (SD)",23.2 ng/mL
same,concentration at 56 day,"[1]; 100 mg QD Part 2, read-out: Trough Plasma Concentration, Median",20 ng/mL
same,AUC(0-t),"[1]; steady state Day 28, 100 mg QD Part 1, read-out: AUC0-24, Geo Mean",10400 ng·h/mL
same,AUC(0-t),"[1]; steady state Day 28, 100 mg QD Part 1, read-out: AUC0-24, Mean (SD)",14900 ng·h/mL
same,AUC(0-t),"[1]; steady state Day 28, 100 mg QD Part 1, read-out: AUC0-24, Median",15000 ng·h/mL
same,Cmax,"[1]; steady state Day 28, 100 mg QD Part 1, read-out: Cmax, Geo Mean",1370 ng/mL
same,Cmax,"[1]; steady state Day 28, 100 mg QD Part 1, read-out: Cmax, Mean (SD)",1620 ng/mL
same,Cmax,"[1]; steady state Day 28, 100 mg QD Part 1, read-out: Cmax, Median",1590 ng/mL
same,AUC(0-t),"[1]; steady state Day 28, 100 mg QD Part 2, read-out: AUC0-24, Geo Mean",6920 ng·h/mL
same,AUC(0-t),"[1]; steady state Day 28, 100 mg QD Part 2, read-out: AUC0-24, Mean (SD)",7480 ng·h/mL
same,AUC(0-t),"[1]; steady state Day 28, 100 mg QD Part 2, read-out: AUC0-24, Median",7090 ng·h/mL
same,Cmax,"[1]; steady state Day 28, 100 mg QD Part 2, read-out: Cmax, Geo Mean",1000 ng/mL
same,Cmax,"[1]; steady state Day 28, 100 mg QD Part 2, read-out: Cmax, Mean (SD)",1360 ng/mL
same,Cmax,"[1]; steady state Day 28, 100 mg QD Part 2, read-out: Cmax, Median",1250 ng/mL
same,Tmax,"[1]; steady state Day 28, 12.5 mg QD",1.08 h
same,Tmax,"[1]; steady state Day 28, 50 mg QD",2.01 h
same,"Cmax, Geo Mean",[1]; [5],140 ng/mL
same,"Cmax, Mean (SD)",[1]; [5],142 (28.3) ng/ml
same,"Cmax, Mean (SD)","[1]; steady state Day 28, 25 mg BID",361 (175) ng/ml
same,"Tmax, Median","[1]; steady state Day 28, 100 mg QD Part 1",1.02 h
same,"Tmax, Median","[1]; steady state Day 28, 100 mg QD Part 2",1 h
same,"11-Deoxycorticosterone, Mean (SD) Observed","[2]; Wk 4, 12.5 mg BID",9.0 (3.0) ng/dL
same,"11-Deoxycorticosterone, Mean (SD) Percent Change from Baseline","[2]; Wk 4, 12.5 mg BID",12.50 (37.50) %
same,"11-Deoxycorticosterone, Mean (SD) Observed","[2]; Wk 4, 12.5 mg QD",11.1 (5.5) ng/dL
same,"11-Deoxycorticosterone, Mean (SD) Percent Change from Baseline","[2]; Wk 4, 12.5 mg QD",31.41 (60.95) %
same,"11-Deoxycorticosterone, Mean (SD) Observed","[2]; Wk 4, 25 mg BID",13.7 (13.9) ng/dL
same,"11-Deoxycorticosterone, Mean (SD) Percent Change from Baseline","[2]; Wk 4, 25 mg BID",71.63 (173.69) %
same,"11-Deoxycorticosterone, Mean (SD) Observed","[2]; Wk 4, 50 mg QD",8.0 (0.0) ng/dL
same,"11-Deoxycorticosterone, Mean (SD) Percent Change from Baseline","[2]; Wk 4, 50 mg QD",−2.66 (9.61) %
same,"11-Deoxycorticosterone, Mean (SD) Observed","[2]; Wk 4, 100 mg QD",9.5 (5.2) ng/dL
same,"11-Deoxycorticosterone, Mean (SD) Percent Change from Baseline","[2]; Wk 4, 100 mg QD",16.18 (66.37) %
same,"11-Deoxycorticosterone, Mean (SD) Observed","[2]; Wk 12, 12.5 mg BID",8.0 (0.0) ng/dL
same,"11-Deoxycorticosterone, Mean (SD) Percent Change from Baseline","[2]; Wk 12, 12.5 mg BID",0.00 (0.00) %
same,"11-Deoxycorticosterone, Mean (SD) Observed","[2]; Wk 12, 12.5 mg QD",9.2 (4.9) ng/dL
same,"11-Deoxycorticosterone, Mean (SD) Percent Change from Baseline","[2]; Wk 12, 12.5 mg QD",11.96 (62.37) %
same,"11-Deoxycorticosterone, Mean (SD) Observed","[2]; Wk 12, 25 mg BID",8.0 (0.0) ng/dL
same,"11-Deoxycorticosterone, Mean (SD) Percent Change from Baseline","[2]; Wk 12, 25 mg BID",0.00 (0.00) %
same,"11-Deoxycorticosterone, Mean (SD) Observed","[2]; Wk 12, 50 mg QD",8.5 (2.4) ng/dL
same,"11-Deoxycorticosterone, Mean (SD) Percent Change from Baseline","[2]; Wk 12, 50 mg QD",3.01 (31.53) %
same,"11-Deoxycorticosterone, Mean (SD) Observed","[2]; Wk 12, 100 mg QD",8.4 (2.0) ng/dL
same,"11-Deoxycorticosterone, Mean (SD) Percent Change from Baseline","[2]; Wk 12, 100 mg QD",2.80 (28.58) %
same,11-deoxycorticosterone compared with placebo,[2]; [6],Transient increases
same,"11-Deoxycorticosterone, Mean Observed","[2]; Wk 4, 100 mg QD",10.28 ng/dL
same,"11-Deoxycorticosterone, Mean Percent Change from Baseline","[2]; Wk 4, 100 mg QD",6.02%
same,"11-Deoxycorticosterone, Mean Observed","[2]; Wk 10, 100 mg QD",8.00 ng/dL
same,"11-Deoxycorticosterone, Mean Percent Change from Baseline","[2]; Wk 10, 100 mg QD",−8.78%
same,11-deoxycorticosterone levels,[2]; summary of trial,unaffected
same,"11-Deoxycortisol, Mean (SD) Observed","[3]; Wk 4, 12.5 mg BID",24.89 (18.99) ng/dL
same,"11-Deoxycortisol, Mean (SD) Percent Change from Baseline","[3]; Wk 4, 12.5 mg BID",22.56 (118.56) %
same,"11-Deoxycortisol, Mean (SD) Observed","[3]; Wk 4, 12.5 mg QD",24.21 (19.92) ng/dL
same,"11-Deoxycortisol, Mean (SD) Percent Change from Baseline","[3]; Wk 4, 12.5 mg QD",10.07 (76.22) %
same,"11-Deoxycortisol, Mean (SD) Observed","[3]; Wk 4, 25 mg BID",35.23 (33.00) ng/dL
same,"11-Deoxycortisol, Mean (SD) Percent Change from Baseline","[3]; Wk 4, 25 mg BID",40.12 (118.32) %
same,"11-Deoxycortisol, Mean (SD) Observed","[3]; Wk 4, 50 mg QD",27.15 (13.97) ng/dL
same,"11-Deoxycortisol, Mean (SD) Percent Change from Baseline","[3]; Wk 4, 50 mg QD",10.80 (61.95) %
same,"11-Deoxycortisol, Mean (SD) Observed","[3]; Wk 4, 100 mg QD",29.29 (23.99) ng/dL
same,"11-Deoxycortisol, Mean (SD) Percent Change from Baseline","[3]; Wk 4, 100 mg QD",9.43 (60.26) %
same,"11-Deoxycortisol, Mean (SD) Observed","[3]; Wk 12, 12.5 mg BID",20.94 (10.27) ng/dL
same,"11-Deoxycortisol, Mean (SD) Percent Change from Baseline","[3]; Wk 12, 12.5 mg BID",−14.58 (33.13) %
same,"11-Deoxycortisol, Mean (SD) Observed","[3]; Wk 12, 12.5 mg QD",31.56 (29.77) ng/dL
same,"11-Deoxycortisol, Mean (SD) Percent Change from Baseline","[3]; Wk 12, 12.5 mg QD",58.62 (122.14) %
same,"11-Deoxycortisol, Mean (SD) Observed","[3]; Wk 12, 25 mg BID",31.55 (26.82) ng/dL
same,"11-Deoxycortisol, Mean (SD) Percent Change from Baseline","[3]; Wk 12, 25 mg BID",26.81 (72.59) %
same,"11-Deoxycortisol, Mean (SD) Observed","[3]; Wk 12, 50 mg QD",26.15 (18.89) ng/dL
same,"11-Deoxycortisol, Mean (SD) Percent Change from Baseline","[3]; Wk 12, 50 mg QD",9.25 (111.16) %
same,"11-Deoxycortisol, Mean (SD) Observed","[3]; Wk 12, 100 mg QD",31.17 (25.98) ng/dL
same,"11-Deoxycortisol, Mean (SD) Percent Change from Baseline","[3]; Wk 12, 100 mg QD",22.05 (64.71) %
same,11-deoxycortisol compared with placebo,[3]; [6],Transient increases
same,"11-Deoxycortisol, Mean Observed","[3]; Wk 4, 100 mg QD",35.96 ng/dL
same,"11-Deoxycortisol, Mean Percent Change from Baseline","[3]; Wk 4, 100 mg QD",22.95%
same,"11-Deoxycortisol, Mean Observed","[3]; Wk 10, 100 mg QD",27.60 ng/dL
same,"11-Deoxycortisol, Mean Percent Change from Baseline","[3]; Wk 10, 100 mg QD",−2.13%
same,"Clinical laboratory parameters (chemistry, hematology, coagulation, urinalysis), change from baseline to Week 8",[4]; Part 1 or Part 2,no meaningful changes
same,Serum creatinine levels compared with placebo,"[4]; active treatment cohorts, Parts 1 and 2",increased
